Measured values as given in US20240141445A1, “NOVEL METHOD FOR POOLED INTRON TAGGING FOR REAL TIME DRUG SCREENING” (CeMM - Forschungszentrum für Molekulare Medizin GmbH, priority 2019, published 2024).

System: GFP-tagged proteins in HAP1 cells
Assay: GFP intron-tagged cell pool / arrayed clones, time-lapse imaging of protein levels and localization
Type: cell-based
Protocol: For the generation of lentiviral particles, HEK293T cells were transiently transfected with the intron-targeting library and packaging plasmids psPAX2, pMD2.G using PEI transfection. After 12 h the media was replaced with IMDM supplemented with 10% FBS and P/S. Viral supernatant was collected 48 h after transfection and stored at −80° C. HAP1 cells were transduced with virus and selected with puromycin for three days. Multiplicity of infection (MOI) was 0.2 and transduction was done at a coverage of 500×. After puromycin selection, cells were grown for one day in media without puromycin before being seeded for transfection (8 million cells per 15 cm dish, 48 million cells in total). One day after seeding, each dish was co-transfected with 20 μg pX330 expressing Cas9-BSD and the generic sgRNA and 10 μg EGFP donor plasmid with 90 μl Turbofection in 2.5 ml OptiMEM as described by the manufacturer. Transfection efficiency was approximately 10% as determined by a transfection done in parallel with pX330 Cas9-mCherry and the EGFP donor plasmid using the same ratio. The next day, cells were subjected to a transient selection using Blasticidin (10 μg/ml) for 24 h. After selection, cells were maintained in full media without Blasticidin and sorted five days after transfection by flow cytometry using a Sony Cell Sorter SH800ZD. 0.03% cells were GFP-positive and in total 24,300 of those GFP-positive cells were sorted and the cell population was expanded for 7 days before DNA was isolated to determine sgRNA abundance in the cell population.
To obtain clonal cell lines, cells were seeded at a concentration of 0.7 cells per well in 96-well cell culture plates. After 9 days of clonal expansion, 768 colonies were harvested using trypsin and cell suspensions were transferred in equal amounts to eight 96-well imaging plates (Perkin Elmer CellCarrier Ultra) and eight corresponding 96-well cell culture plates. After 24 h, cells on the imaging plates were imaged on a Perkin Elmer Opera Phenix High Content Screening System (5 fields of view per well, 63× water-immersion objective, confocal mode, excitation: 488 nm, […], 700 ms). Images were processed using Cell Profiler. To identify the intron-targeting sgRNAs expressed in imaged cells, multiplexed amplicon sequencing of the sgRNA regions was performed in the corresponding clones on the eight 96-well cell culture plates. Cells were lysed and cell lysates were used for PCR to amplify the sgRNA region in each clone using barcoded primers flanking the sgRNA region (36 different 5-mers added to the 5′end of the forward primer and 24 different 5-mers added to the 5′end of the reverse primer, 768 of all possible 864 combinations were used). PCR reactions were pooled and column purified before being send for sequencing by a commercial sequencing service. NGS reads were demultiplexed using Cutadapt (see Martin, M. EMBnet. journal, [S.I.], v. 17, n. 1, p. pp. 10-12, may 2011) and sgRNA read counts for each individual well were obtained using MAGeCK (see, Li (2014) Genome Biol 15, 554 (2014). For further analysis clones were excluded, for which either no cells in any of the 5 fields of view that were imaged were observed, no sequencing reads for the corresponding well were observed or for which polyclonal cell populations as determined by imaging or detection of multiple sgRNAs per well were observed. Using that strategy, images of 335 clones were obtained for which the expressed intron-targeting sgRNA corresponding to the tagged protein could be identified.
Live cell imaging was performed on a PerkinElmer Opera Phenix microscope with excitation laser 488 nm, and emission filter 500-550 nm, 700 ms.
Identification of the expressed sgRNAs by in situ sequencing was performed by following and modifying published protocols, see, e.g., Feldman (2019) loc. cit; Ke (2013) Nat Methods 10, 857-60; and Larsson (2010) Nat Methods 7, 395-7. […]

[1] = clonal cell line, 1 μM (FIG. 10)

Compound: CN(Cc1cnc2nc(N)nc(N)c2n1)c1ccc(C(=O)N[C@@H](CCC(=O)O)C(=O)O)cc1 [MTX, methotrexate]
- PADI1 protein level (1 μM (FIG. 10)): decreases
- RUVBL1 protein level (1 μM (FIG. 10)): decreases
- nuclear foci of GFP-tagged DNMT1 (1 μM (FIG. 10)): disappearance of nuclear DNMT1 foci
- nuclear signal of GFP-tagged NUDT21 (1 μM (FIG. 10)): gain of nuclear signal
- nuclear signal of GFP-tagged TPI1 (1 μM (FIG. 10)): gain of nuclear signal
- nuclear signal of GFP-tagged transcription factor DR1 (1 μM (FIG. 10)): gain of nuclear signal
- localization of GFP-tagged ACLY (24 h treatment, 1 μM (FIG. 10)): increased nuclear localization
- localization of GFP-tagged RPA1 [1]: formation of nuclear foci
- localization of GFP-tagged RPA2 [1]: formation of nuclear foci

Compound: Cc1sc2c(c1C)C(c1ccc(Cl)cc1)=N[C@@H](CC(=O)NCCCCCCCCNC(=O)COc1cccc3c1C(=O)N(C1CCC(=O)NC1=O)C3=O)c1nnc(C)n1-2 (some centres unmarked) [dBET6]
- localization of GFP-tagged AKAP8 (cell pool, FIG. 6e): gain of nuclear foci
- localization of GFP-tagged FUBP3 (cell pool, FIG. 6e): loss of subnuclear localization patterns
- localization of GFP-tagged MEAF1 (cell pool, FIG. 6e): loss of subnuclear localization patterns
- localization of GFP-tagged SFPQ (cell pool, FIG. 6e): gain of nuclear foci
- nuclear intensity of GFP-tagged UNG (cell pool, FIG. 6e): loss of nuclear intensity
